Test [1] deals with T1, Aminopeptidase N (Plasmodium falciparum FcB1/Columbia, UniProt O96935).
T1 sequence (O96935 whole entry): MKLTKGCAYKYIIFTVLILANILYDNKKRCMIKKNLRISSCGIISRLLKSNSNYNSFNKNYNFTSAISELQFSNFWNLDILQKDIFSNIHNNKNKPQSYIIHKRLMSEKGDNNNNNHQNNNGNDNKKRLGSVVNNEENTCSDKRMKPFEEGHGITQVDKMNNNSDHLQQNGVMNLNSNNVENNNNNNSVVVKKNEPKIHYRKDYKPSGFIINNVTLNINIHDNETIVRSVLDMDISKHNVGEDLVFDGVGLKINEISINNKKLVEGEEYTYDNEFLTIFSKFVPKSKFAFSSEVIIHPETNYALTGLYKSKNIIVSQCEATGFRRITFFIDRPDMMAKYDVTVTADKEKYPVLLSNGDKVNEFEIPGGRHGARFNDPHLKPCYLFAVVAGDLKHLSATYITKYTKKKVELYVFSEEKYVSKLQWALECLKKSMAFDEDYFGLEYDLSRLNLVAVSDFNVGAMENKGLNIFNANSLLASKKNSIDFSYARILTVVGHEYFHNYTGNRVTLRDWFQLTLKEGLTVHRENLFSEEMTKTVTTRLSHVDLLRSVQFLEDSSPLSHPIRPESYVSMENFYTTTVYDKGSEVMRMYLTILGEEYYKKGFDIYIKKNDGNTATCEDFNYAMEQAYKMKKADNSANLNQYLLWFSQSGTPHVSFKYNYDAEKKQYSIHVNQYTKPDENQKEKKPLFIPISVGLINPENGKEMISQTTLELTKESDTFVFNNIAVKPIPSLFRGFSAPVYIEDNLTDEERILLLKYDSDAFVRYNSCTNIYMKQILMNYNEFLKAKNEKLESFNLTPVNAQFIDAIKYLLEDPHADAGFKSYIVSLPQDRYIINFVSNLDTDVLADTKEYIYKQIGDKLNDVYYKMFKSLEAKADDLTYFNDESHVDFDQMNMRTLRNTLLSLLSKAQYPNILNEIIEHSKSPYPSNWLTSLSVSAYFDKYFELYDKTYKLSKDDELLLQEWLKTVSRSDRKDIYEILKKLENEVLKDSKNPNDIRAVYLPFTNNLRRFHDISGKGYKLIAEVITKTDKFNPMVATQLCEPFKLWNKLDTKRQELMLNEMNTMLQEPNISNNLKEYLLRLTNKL
Kind of test: P. falciparum M1AAP inhibitors, biochemical, fluorogenic H-Leu-NHMec substrate, 1536-well (AID 1445). Further details: species or system Plasmodium falciparum 3D7, 3D7.

Test [2] deals with Genome polyprotein (dengue virus type 2, UniProt P29990). Kind of test: Dengue-2 NS5 methyltransferase inhibitors, primary screen, biochemical, confirmation dose response (AID 588689). It counts as functional.
Chain of Genome polyprotein (P29990 2492-3391 limits assumed): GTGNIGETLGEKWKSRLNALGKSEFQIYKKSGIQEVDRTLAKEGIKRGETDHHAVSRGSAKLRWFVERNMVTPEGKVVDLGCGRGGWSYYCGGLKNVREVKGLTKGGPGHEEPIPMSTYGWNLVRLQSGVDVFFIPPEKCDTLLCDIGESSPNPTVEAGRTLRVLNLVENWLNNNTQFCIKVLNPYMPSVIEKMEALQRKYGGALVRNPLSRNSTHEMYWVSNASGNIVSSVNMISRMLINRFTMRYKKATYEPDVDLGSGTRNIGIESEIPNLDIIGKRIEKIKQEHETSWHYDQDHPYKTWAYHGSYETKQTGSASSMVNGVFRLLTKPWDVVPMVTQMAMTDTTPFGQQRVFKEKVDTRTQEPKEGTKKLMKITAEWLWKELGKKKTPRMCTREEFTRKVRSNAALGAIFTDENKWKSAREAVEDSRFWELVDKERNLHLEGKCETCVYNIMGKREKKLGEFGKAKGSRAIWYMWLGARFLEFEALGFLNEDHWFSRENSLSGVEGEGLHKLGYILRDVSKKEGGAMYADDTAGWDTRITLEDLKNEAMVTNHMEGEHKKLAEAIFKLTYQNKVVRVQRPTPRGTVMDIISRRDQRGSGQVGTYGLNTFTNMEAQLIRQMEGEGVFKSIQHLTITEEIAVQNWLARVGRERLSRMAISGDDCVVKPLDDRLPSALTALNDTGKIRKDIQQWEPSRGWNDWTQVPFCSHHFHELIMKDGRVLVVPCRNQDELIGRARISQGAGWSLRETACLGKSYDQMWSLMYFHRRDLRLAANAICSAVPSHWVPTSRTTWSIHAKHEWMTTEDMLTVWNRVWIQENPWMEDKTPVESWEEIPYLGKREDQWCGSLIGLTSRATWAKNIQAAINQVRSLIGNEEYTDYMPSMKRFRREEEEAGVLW
Test [3] has as its target T2, Replicative DNA helicase DnaB (Mycobacterium tuberculosis, UniProt P9WMR3).
T2 sequence (P9WMR3 whole entry): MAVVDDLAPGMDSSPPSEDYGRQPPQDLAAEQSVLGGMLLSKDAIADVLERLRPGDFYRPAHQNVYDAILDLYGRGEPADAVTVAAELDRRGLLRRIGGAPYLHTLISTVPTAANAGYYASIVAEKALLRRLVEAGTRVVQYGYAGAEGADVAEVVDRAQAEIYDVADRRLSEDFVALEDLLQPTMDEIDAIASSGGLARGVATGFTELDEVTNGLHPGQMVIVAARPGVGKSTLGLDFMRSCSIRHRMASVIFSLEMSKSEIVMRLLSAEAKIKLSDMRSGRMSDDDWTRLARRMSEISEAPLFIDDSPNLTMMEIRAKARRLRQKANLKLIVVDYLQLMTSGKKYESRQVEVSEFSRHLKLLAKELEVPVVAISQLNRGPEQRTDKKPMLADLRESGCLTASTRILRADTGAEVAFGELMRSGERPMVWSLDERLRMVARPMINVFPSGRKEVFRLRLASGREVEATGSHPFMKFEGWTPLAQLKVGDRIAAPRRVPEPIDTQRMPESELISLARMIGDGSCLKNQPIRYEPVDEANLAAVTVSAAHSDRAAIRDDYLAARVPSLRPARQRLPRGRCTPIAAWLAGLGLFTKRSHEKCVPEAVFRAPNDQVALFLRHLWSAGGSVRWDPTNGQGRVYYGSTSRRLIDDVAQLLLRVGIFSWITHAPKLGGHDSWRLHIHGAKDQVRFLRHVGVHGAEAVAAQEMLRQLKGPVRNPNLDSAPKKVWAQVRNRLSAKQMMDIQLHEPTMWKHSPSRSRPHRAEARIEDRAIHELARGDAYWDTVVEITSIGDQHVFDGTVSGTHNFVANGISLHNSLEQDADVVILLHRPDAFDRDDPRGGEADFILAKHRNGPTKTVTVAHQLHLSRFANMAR
The experiment in a line: DnaB intein splicing inhibitors, dose response, biochemical, cell-free fluorescence (AID 449749). It counts as functional.

The target in test [4] is T3, Protein RecA (Mycobacterium tuberculosis, UniProt P9WHJ3).
T3 sequence (P9WHJ3 whole entry): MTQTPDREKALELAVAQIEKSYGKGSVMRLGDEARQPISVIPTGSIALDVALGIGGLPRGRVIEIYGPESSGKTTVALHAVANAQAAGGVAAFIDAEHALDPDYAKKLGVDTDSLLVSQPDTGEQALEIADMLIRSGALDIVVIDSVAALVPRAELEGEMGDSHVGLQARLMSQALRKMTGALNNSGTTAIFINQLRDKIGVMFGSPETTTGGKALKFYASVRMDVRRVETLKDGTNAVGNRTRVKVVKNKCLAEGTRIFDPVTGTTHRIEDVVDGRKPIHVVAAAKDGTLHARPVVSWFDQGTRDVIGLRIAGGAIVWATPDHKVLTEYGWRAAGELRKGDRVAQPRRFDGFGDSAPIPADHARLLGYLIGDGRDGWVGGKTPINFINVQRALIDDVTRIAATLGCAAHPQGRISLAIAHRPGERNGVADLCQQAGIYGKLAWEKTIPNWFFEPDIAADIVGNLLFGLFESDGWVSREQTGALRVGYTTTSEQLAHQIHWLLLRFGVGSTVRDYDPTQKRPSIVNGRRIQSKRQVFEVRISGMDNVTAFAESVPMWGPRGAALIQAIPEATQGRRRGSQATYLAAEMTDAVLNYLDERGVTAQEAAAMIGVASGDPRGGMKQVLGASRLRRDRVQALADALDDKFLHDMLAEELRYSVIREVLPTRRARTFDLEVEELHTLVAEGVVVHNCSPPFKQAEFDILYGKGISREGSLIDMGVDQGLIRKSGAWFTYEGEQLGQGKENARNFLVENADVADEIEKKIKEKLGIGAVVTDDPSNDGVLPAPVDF
The experiment in a line: Fluorescence Cell-Free Homogeneous Dose Retest to Identify Inhibitors of RecA-Intein Splicing Activity. [Related pubchem assays (depositor defined):AID2097, AID2223, AID489010, AID492950]. It is filed as functional.

Test [5] can be described thus: inhibitors of intracellular T. cruzi replication, confirmation, NIH3T3 host cells, beta-gal luminescence (AID 2044).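 Also: intracellular parasites grown in NIH/3T3 mouse fibroblasts as host cells; luminescent beta-galactosidase reporter signal from transgenic T. cruzi replicating inside host cells; inhibitors lower the luminescence signal.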 It is filed as functional, cell-based.
The nature of test [6]: cytotoxicity toward NIH3T3 fibroblasts, dose response, counter-screen, cell-based, ATP luminescence, mouse fibroblasts (AID 2010).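 Also: cells exposed to compound for about 90 hours before reading.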 It is filed as functional.
The nature of test [7]: Vero E6 cell cytotoxicity, dose response, cytotoxicity control for non-replicating M. tuberculosis project, secondary assay (AID 492998). It is filed as functional, VeroE6. As to conditions: Vero C1008.
Test [8] in a line: THP-1 cell cytotoxicity, dose response, cytotoxicity control for non-replicating M. tuberculosis project (AID 489025). It counts as functional.
The nature of test [9]: cells. It counts as functional.
Test [10] deals with Nonstructural protein 1 (Influenza A virus, UniProt Q194T2). It is filed as functional, Influenza A virus (A/California/07/2009(H1N1)).
Chain of Nonstructural protein 1 (Q194T2 whole entry): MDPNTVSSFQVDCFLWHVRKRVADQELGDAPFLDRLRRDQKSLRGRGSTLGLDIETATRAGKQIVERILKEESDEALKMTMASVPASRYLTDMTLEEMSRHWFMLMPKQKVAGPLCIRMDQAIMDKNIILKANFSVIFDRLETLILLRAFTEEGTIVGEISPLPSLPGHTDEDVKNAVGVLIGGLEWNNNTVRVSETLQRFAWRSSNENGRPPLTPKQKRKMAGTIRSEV
Test [11] addresses T4, Ubiquitin-conjugating enzyme E2 N (Homo sapiens, UniProt P61088).
T4 sequence (P61088 whole entry): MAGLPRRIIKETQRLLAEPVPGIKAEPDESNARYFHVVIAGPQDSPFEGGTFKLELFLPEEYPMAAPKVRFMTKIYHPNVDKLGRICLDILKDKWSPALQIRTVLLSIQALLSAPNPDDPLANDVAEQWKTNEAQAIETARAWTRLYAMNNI
It is filed as functional.

The source made the active and inactive calls.

As for `O=C(N/N=C/c1ccccc1C(=O)O)c1cc(-c2ccc3c4c(cccc24)CC3)[nH]n1`, the IC50 (usually the midpoint of a concentration-inhibition curve) in [1] is 85.2 µM (active).
As to `Cc1oc2cc([N+](=O)[O-])c(O)c([N+](=O)[O-])c2c1C(=O)c1ccc(Br)cc1`, the IC50 in test [2] is 45.2 µM (active); in [1] it was 77 µM (active). Also, the AC50 (in general, the concentration at which the activity in the assay is half-maximal) in test [3] is 8.65 µM (active). Also, the EC50 (commonly the concentration that produces a half-maximal response) in test [4] is 7.96 µM (active).
As to `O=C(Nc1ccccc1N1CCN(C(=O)c2ccc(Cl)cc2)CC1)c1ccc([N+](=O)[O-])o1`, the values for the concentration giving a half-maximal response (EC50) in test [5] and in test [6] were 1.32 µM (active) and 37.2 µM (active), respectively. The cytotoxic concentration (CC50) (in general, the concentration that lowers cell viability or growth by half) in test [7] is 5.96 µM (active); in test [8] it was 12.8 µM (active).
As to `O=C1c2cccc3cccc(c23)C(=O)N1CCCc1nnc(S)n1-c1ccccc1`, the IC50 in test [1] is 17.9 µM (active).
With `COc1ccc(CCCC(=O)NCc2ccccc2)cc1C`, the CC50 in test [7] is > 20 µM (active); in test [8], 9.44 µM (active).
Turning to `Oc1c2c(nc3c(-c4ccccc4)cnn13)CCCC2`, the CC50 in test [7] was > 20 µM (active); in test [8] it was > 40 µM (active). Moreover, in [9], the half-inhibitory concentration (IC50) was 44 µM (active).
Regarding `Cc1ccsc1C(C(=O)NC1CCCCC1)N(C(=O)c1csnn1)C1CC1` (stereo unspecified), in test [1], the IC50 was 87.7 µM (active).
Take `COc1cc(/C=C2\SC(c3ccccc3)=NC2=O)cc(Cl)c1O`: the IC50 was 12.7 µM (active) in [10] and 20 µM (active) in test [1].
As for `CCc1ccc(OCC(=O)NNC(=O)c2cnccn2)c(Br)c1`, the CC50 in [7] is 18.8 µM (active); in test [8], > 40 µM (active). The IC50 in test [9] is 9.66 µM (active); in test [11] it was > 20 µM (inactive).
Consider `O=C(CC(=O)c1ccccc1O)c1cccc(F)c1`, for which the CC50 is 16.5 µM (active) in test [7] and > 40 µM (active) in test [8]. For the same compound, the concentration for half-maximal inhibition (IC50) in test [9] is 17.4 µM (active).
Consider `CCCCN(CC)Cc1c(O)ccc2c3c(c(=O)oc12)CCC3`, for which, in [1], the IC50 is 57.7 µM (active).

The values above are taken from ChEMBL document CHEMBL1201862, “PubChem BioAssay data set” (2004).
